Results on 1 compound are retold here after patent publication EP0420121A1, “Antitumor composition” (Senju Pharmaceutical Co., Ltd., priority 1989, dated 1991).

“And” between values parts separate entries of the source, which are not always exact repeats. Equal entries are not always repeated.

This experiment relates to Sarcoma 180 cells. The experiment can be described thus: Pharmacological activity testing in mice with sarcoma 180. The settings on record: 100 mg/kg intraperitoneally once daily for 11 days. It is filed as in vivo, ddy strain male mice. The source says:
Pharmacological activity testing in mice with sarcoma 180
Sarcoma 180 cells (1.16 X 10⁷ cells/animal) were transplanted into groups of 8 ddy strain male mice (5 to 6 weeks of age) subcutaneously at the back on the right side of the body. In one group, the compound S- (α ,β -dicarboxyethyl)glutathione (hereinafter referred to as "DCE-GS" for short) in the forms of a 1.0% (w/v) injectable solution (pH 6.5; isotonized with sodium chloride) was intraperitoneally administered to the animals in a volume corresponding to the dose of 100 mg/kg once daily for 11 days. The control group was intraperitoneally given the same volume of physiological saline once daily for the same period. On day 12, the animals were sacrificed, the tumor was excised from each animal and weighed.

With `N[C@@H](CCC(=O)N[C@@H](CSC(CC(=O)O)C(=O)O)C(=O)NCC(=O)O)C(=O)O` (stereo partly drawn) [DCE-GS, S-(α ,β -Dicarboxyethyl)glutathione], the Tumor growth inhibition entry (day 12, versus physiological saline group) is recorded as “Tumor growth inhibition = (3.45 - 1.79)/3.45 X 100 = 48.1%”. The “Tumor weights (Mean)” value (sarcoma 180 transplanted subcutaneously, day 12, mean of 8 mice, physiological saline group 3.45± 0.42) worked out at 1.79 ± 0.14 g. Also, the “Tumor weights (individual animals)” value (sarcoma 180 transplanted subcutaneously, tumor excised and weighed on day 12, individual No. 1-8, 100 mg/kg) was 2.48 g and 1.92 g and 2.09 g and 1.47 g and 1.95 g and 1.11 g and 1.62 g and 1.69 g.
